These are literature values, as cited in patent US11992527B2, “Extracellular vesicles for vaccine delivery” (LONZA SALES AG, priority 2019, dated 2024).

Molecules are shown by their SMILES.

For series [1] the following is noted: Phase 2 study (Palmer 2018).
In a further series the test system is mouse LPA-1/CHO cells. The following applies: in vitro, read-out: IC50, inhibition of LPA-1-induced chemotaxis.
In series [2] the test system is human A2058 melanoma cells. Conditions: in vitro, read-out: IC50, inhibition of LPA-1-induced chemotaxis.
Series [3] concerns BALF collagen and protein; macrophage and lymphocyte infiltration induced by bleomycin.
The conditions of series [4]: in vivo.
The subject of series [5] is LPA-induced histamine release. Conditions: in mice.

Take `Cc1noc(-c2ccc(-c3ccc(C4(C(=O)O)CC4)cc3)cc2)c1NC(=O)O[C@H](C)c1ccccc1` [AM152, Cyclopropanecarboxylic acid, 1-[4′-[3-methyl-4-[[[(1R)-1-phenylethoxy]carbonyl]amino]-5-isoxazolyl][1,1′-biphenyl]-4-yl]-]: the “toxicity that led to early termination of the Phase 2 study” value in series [1] was “gall bladder toxicity and early signs of liver toxicity”.
For `Cc1noc(-c2ccc(-c3ccc(CC(=O)O)cc3)cc2)c1NC(=O)O[C@H](C)c1ccccc1` [AM095, 1,1′-Biphenyl]-4-acetic acid, 4′-[3-methyl-4-[[[(1R)-1-phenylethoxy]carbonyl]amino]-5-isoxazolyl[ ]-], the IC50 (as a rule, the concentration that inhibits the measured activity by half) with mouse LPA-1/CHO cells was 780 nM; in series [2] it was 230 nM. Moreover, in series [3] (in lungs), the “ED50, reduction of BALF collagen and protein” value is recorded as 10 mg/kg. The “macrophage and lymphocyte infiltration induced by bleomycin” value in series [3] (in mice) was “decrease both macrophage and lymphocyte infiltration”. Also, the oral bioavailability result in series [4] is recorded as “orally bioavailable”. Further, the “ED50, block of LPA-induced histamine release” value in series [5] is given as 8.3 mg/kg.
